Here are results for six compounds from US11911397B2, “Anordrin compositions and methods for treating diseases” (Zhejiang Jiachi Development Pharmaceuticals LTD, priority 2014, dated 2024).

For data set [1], the target named is T1, ER-α ligand binding domain (GST-ER-α-LBD) (Homo sapiens, UniProt P03372).
T1 construct: made in house; host or cells: E. coli
T1 sequence (P03372 311-547 limits assumed): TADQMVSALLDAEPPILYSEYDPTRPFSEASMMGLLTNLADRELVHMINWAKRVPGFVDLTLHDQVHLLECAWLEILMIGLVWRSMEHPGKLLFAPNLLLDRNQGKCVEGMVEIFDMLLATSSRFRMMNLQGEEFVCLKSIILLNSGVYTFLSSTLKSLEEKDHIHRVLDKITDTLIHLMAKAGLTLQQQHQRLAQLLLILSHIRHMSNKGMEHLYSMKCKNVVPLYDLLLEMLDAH
Kind of data set: 3H-E2 competition assay on GST-ER-α-LBD beads. The note with it: 50 nM, 0.5 nM [H^3-E2], 1 μg GST-ER-α-LBD.

Data set [2] concerns Bcl-2 expression in MCF-7 cells. As to the kind of experiment: Bcl-2 expression in MCF-7 cells (western blotting, RT-qPCR). In kind it is cell-based.
For data set [3], the system named is 8S and 4S estrogen-binding complexes in uterine cytosol. The settings on record: cited from earlier work.
The subject of data set [4] is ovariectomized (OVX) mice. As to the kind of experiment: ovariectomized (OVX) mice model. The class given is in vivo. The settings on record: OVX mice; for body mass: after 6 weeks, intragastric; for total cholesterol (TC) in liver / triglyceride (TG) in liver: compared to controls.
Data set [5] concerns BRCA1, ApoD, COX7a mRNA in MCF-7 cells. Kind of data set: RT-qPCR of genes regulated by the estrogen classic pathway in MCF-7 cells. The note with it: for expression of ApoD: FIG. 13B. In kind it is cell-based.
The test system of the next data set is MCF-7 cells. As to the kind of experiment: glucose consumption and medium pH of MCF-7 cells. In kind it is cell-based. The settings on record: MCF-7 cells, 60 hours.
A further data set concerns MDA-MB-231 cells. Kind of data set: MDA-MB-231 cell growth, cell counting. The class given is cell-based. The settings on record: 6 μM anordrin.
A further data set relates to normal mice. Kind of data set: normal mice treated with tamoxifen, anordrin or both. The note with it: tamoxifen 4.5 μg/g body mass per day, 9 weeks.
Data set [6] relates to endometrial epithelial cells. As to the kind of experiment: endometrial epithelial cells in mice (histology). The settings on record: monolayer vs polylayer.
Source text: Preparation of paraffin sections and HE staining: The tissue of mice was excised by surgery and fixed using 2.5% formaldehyde in 1×PBS.

Consider `C#C[C@@]1(OC(=O)CC)C[C@@H]2CC[C@@H]3[C@H](CC[C@@]4(C)[C@H]3CC[C@]4(C#C)OC(=O)CC)[C@H]2C1` [dinordrin], for which the “blocking of [H^3-E2] binding to GST-ER-α-LBD on beads” value in data set [1] amounted to 63.2±5.7%. In addition, the “increase of Bcl-2 mRNA transcription” value in data set [2] (6 μM dinordrin, RT-qPCR) is given as 147.2%±22.73%.
On to `C#C[C@@]1(O)C[C@@H]2CC[C@@H]3[C@H](CC[C@@]4(C)[C@H]3CC[C@@]4(O)C#C)[C@@]2(C)C1` [Anordiol, 2β,7α-diethyl-A-nor-5α-androstane-2α,17β-diol], for which the “binding to estrogen-binding complexes 4S and 8S” value in data set [3] is “preferentially bind the 8S complex”.
`CC(C)Oc1ccc2c(=O)c(-c3ccccc3)coc2c1` [ipriflavone]: in [4], the body mass entry is reported as “increased”, the “total cholesterol (TC) in liver” value is “no change” and the “triglyceride (TG) in liver” value is listed as “no change”.
On to `O=C(c1ccc(OCCN2CCCCC2)cc1)c1c(-c2ccc(O)cc2)sc2cc(O)ccc12` [raloxifene], for which the “expression of ApoD” value in data set [5] is on record as “enhance expression of ApoD”.
On to `C[C@]12CC[C@@H]3c4ccc(O)cc4CC[C@H]3[C@@H]1CC[C@@H]2O` [E2, 17-beta estradiol], for which, in data set [4], the “fat deposits in paraffin sections of liver” value is on record as “smaller fat deposits”, the body mass entry is reported as “remained unchanged”, the “total cholesterol (TC) in liver” value is recorded as “decreased amounts” and the “triglyceride (TG) in liver” value is on record as “decreased amounts”.
In the case of `CC/C(=C(\c1ccccc1)c1ccc(OCCN(C)C)cc1)c1ccccc1` [tamoxifen], in [5], the “mRNA level of BRCA1” value was “significantly inhibited”, the “transcription of COX7a mRNA” value is recorded as “significantly inhibited” and the “expression of ApoD” value was “enhance expression of ApoD”. The “binding to estrogen-binding complexes 4S and 8S” value in data set [3] is listed as “bind both estrogen-binding complexes”. Further, the Bcl-2 protein expression entry in data set [2] (7.5 μM, western blotting) is listed as “inhibit Bcl-2 expression”. The Bcl-2 protein expression result in data set [2] (charcoal-stripped FBS in phenol red free DMEM) was “Neither tamoxifen nor anordrin or analog thereof (such as anordrin) were found to affect Bcl-2 protein expression”. Besides, in the data set with MCF-7 cells, the “glucose concentration of media / glucose consumption” value is given as “inhibition”. Further, in the data set on MDA-MB-231 cells, the MDA-MB-231 cell growth entry is reported as “no effect”. In addition, in the data set with normal mice, the “indicators of NASH syndrome” value is recorded as “increased indicators of NASH syndrome” and the “liver TG levels” value is reported as “increased”. Also, the body mass entry in the data set on normal mice (normal mice) was “increase in body mass”. Moreover, the “endometrial epithelial cell proliferation” value in [6] was “induce proliferation”.
